The values below are quoted from earlier work in patent US12404348B2, “Bifunctional chimeric molecules for labeling of kinases with target binding moieties and methods of use thereof” (The Brigham and Women's Hospital, Inc., priority 2021, dated 2025).

Broadly, the IC50 is the concentration that inhibits the measured activity by half. As a reminder, the AC50 is the concentration at which the activity in the assay is half-maximal. Broadly, the Kd is the equilibrium constant for the complex coming apart.

Where two headings read alike, the source gives them in different places.

In one data set the test system is NF-κB Pathway. The conditions noted are these: U(37 cells).
A further data set addresses T1, Recombinant PKCζ (Homo sapiens, UniProt Q05513).
T1 sequence (Q05513 1-592): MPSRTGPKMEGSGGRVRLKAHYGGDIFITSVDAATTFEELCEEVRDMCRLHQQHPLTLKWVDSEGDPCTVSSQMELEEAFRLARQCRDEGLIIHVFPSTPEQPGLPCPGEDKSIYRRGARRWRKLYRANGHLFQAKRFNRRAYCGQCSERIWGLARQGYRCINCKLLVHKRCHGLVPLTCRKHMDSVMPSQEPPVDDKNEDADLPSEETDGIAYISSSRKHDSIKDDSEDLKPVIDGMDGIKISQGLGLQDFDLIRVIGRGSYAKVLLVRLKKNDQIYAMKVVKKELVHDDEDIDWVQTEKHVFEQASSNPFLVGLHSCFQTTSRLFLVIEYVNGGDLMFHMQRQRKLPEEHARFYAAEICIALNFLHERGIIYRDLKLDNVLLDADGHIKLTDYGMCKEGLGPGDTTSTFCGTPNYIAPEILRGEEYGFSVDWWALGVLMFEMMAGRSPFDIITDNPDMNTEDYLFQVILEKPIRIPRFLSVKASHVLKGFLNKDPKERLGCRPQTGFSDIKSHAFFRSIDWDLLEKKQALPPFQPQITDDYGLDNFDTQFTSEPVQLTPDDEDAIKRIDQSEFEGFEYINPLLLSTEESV

A further data set addresses T2, PKCl (Homo sapiens, UniProt P41743).
T2 sequence (P41743 1-596): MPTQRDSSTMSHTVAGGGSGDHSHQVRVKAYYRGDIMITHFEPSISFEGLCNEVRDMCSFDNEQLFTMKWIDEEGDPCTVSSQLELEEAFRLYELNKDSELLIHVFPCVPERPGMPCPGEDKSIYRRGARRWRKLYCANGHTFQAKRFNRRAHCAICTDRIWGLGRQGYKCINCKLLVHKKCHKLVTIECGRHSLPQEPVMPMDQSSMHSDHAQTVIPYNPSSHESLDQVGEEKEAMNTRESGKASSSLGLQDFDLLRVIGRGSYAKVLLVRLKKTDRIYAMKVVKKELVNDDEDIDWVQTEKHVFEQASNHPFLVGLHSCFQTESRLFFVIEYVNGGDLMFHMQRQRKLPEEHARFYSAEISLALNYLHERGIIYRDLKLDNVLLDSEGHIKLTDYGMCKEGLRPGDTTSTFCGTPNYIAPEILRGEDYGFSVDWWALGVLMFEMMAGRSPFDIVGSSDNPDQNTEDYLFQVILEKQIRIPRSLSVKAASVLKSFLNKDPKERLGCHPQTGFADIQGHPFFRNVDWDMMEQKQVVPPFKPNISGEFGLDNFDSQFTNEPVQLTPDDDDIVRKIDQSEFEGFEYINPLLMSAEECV

The target of data set [1] is T3, PDK1 (Homo sapiens, UniProt O15530).
T3 sequence (O15530 1-556): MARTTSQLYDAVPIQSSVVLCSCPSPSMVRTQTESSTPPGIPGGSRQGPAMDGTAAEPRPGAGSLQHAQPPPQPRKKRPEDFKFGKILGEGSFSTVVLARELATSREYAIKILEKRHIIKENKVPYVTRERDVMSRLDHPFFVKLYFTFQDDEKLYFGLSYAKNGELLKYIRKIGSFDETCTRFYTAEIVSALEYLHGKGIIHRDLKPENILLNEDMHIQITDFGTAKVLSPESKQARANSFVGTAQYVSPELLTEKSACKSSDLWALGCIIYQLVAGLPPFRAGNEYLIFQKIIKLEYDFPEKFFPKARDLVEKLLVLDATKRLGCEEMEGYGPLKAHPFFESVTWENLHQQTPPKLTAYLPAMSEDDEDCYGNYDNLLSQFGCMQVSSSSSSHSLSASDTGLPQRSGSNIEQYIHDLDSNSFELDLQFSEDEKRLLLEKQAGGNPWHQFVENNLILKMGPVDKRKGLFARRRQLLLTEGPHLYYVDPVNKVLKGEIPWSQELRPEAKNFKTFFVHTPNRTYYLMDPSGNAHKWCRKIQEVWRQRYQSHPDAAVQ

The next data set addresses AKT1 (Homo sapiens, UniProt P31749).
Data set [2] deals with T3, PDK1. Particulars: for Kd: read-out: ITC Kd.

Chain of AKT1 (P31749 whole entry): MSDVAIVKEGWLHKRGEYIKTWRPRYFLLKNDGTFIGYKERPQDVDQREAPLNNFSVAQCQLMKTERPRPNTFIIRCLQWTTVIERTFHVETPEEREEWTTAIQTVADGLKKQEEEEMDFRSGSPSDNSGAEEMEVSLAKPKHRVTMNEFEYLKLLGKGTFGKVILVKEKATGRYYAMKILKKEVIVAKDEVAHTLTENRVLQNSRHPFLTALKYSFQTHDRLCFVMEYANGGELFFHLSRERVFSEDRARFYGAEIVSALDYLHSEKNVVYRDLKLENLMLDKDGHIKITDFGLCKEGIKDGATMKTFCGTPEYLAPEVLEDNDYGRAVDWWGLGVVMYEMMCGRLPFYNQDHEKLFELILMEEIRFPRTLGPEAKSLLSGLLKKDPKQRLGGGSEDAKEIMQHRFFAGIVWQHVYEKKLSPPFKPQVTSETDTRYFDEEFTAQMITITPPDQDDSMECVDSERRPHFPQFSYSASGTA

Take `CC(C)(C)C1=NN(c2ccc(F)cc2)C(c2ccc(O)cc2)C1` (centres unmarked) [1b]: the “NF-κB reporter gene assay % inhibin at 5 μM” value with NF-κB Pathway is 63.8%.

For the compound `CC(C)(C)C1=NN(c2ccc(Br)cc2)C(c2ccc(O)cc2)C1` (centres unmarked) [1c], the “NF-κB reporter gene assay % inhibin at 5 μM” value with NF-κB Pathway was 58.4%.

Regarding `Cc1ccc(N2N=C(C(C)(C)C)CC2c2ccc(O)cc2)cc1` (centres unmarked) [1e], the “NF-κB reporter gene assay % inhibin at 5 μM” value in the data set with NF-κB Pathway is 62.9%.

For `CC(C)c1ccc(N2N=C(C(C)(C)C)CC2c2ccc(O)cc2)cc1` (centres unmarked) [1f], the “cell-free assay % inhibin at 62.5 μM” value on Recombinant PKCζ was 54.9%.

With `CC(C)(C)C1=NN(c2ccc(C(=O)O)cc2)C(c2ccc(O)cc2)C1` (centres unmarked) [1g], the “cell-free assay % inhibin at 62.5 μM” value at Recombinant PKCζ was 47.9%. For the same compound, the “NF-κB reporter gene assay % inhibin at 5 μM” value in the data set on NF-κB Pathway is given as 40.7%.

Take `CC(C)(C)C1=NN(c2cccc(Cl)c2)C(c2ccc(O)cc2)C1` (centres unmarked) [1h]: the “NF-κB reporter gene assay % inhibin at 5 μM” value in the data set with NF-κB Pathway is recorded as 64.6%. In addition, the “PKCl % inhibn at 20 μM” value on PKCl is 43.5%.

On to `CC(C)(C)C1=NN(c2cccc(F)c2)C(c2ccc(O)cc2)C1` (centres unmarked) [1i], for which the “NF-κB reporter gene assay % inhibin at 5 μM” value with NF-κB Pathway was 73.5%. In addition, at PKCl, the “PKCl % inhibn at 20 μM” value is listed as 19.3%.

For the compound `CC(C)(C)C1=NN(c2cccc(C(F)(F)F)c2)C(c2ccc(O)cc2)C1` (centres unmarked) [1j], the “NF-κB reporter gene assay % inhibin at 5 μM” value with NF-κB Pathway is 89.7%. In the data set with NF-κB Pathway (read-out: NF-κB reporter gene assay IC50 ± SD), the IC50 was 2.7 ± 0.32 µM. Also, the “PKCl % inhibn at 20 μM” value at PKCl was 17.0%.

With `Cc1cccc(N2N=C(C(C)(C)C)CC2c2ccc(O)cc2)c1` (centres unmarked) [1k], the “NF-κB reporter gene assay % inhibin at 5 μM” value in the data set with NF-κB Pathway is on record as 73.7%. The “PKCl % inhibn at 20 μM” value at PKCl is reported as 13.9%.

With `CC(C)(C)C1=NN(c2ccccc2Cl)C(c2ccc(O)cc2)C1` (centres unmarked) [1l], the “cell-free assay % inhibin at 62.5 μM” value on Recombinant PKCζ is 57.1%. For the same compound, in the data set with NF-κB Pathway, the “NF-κB reporter gene assay % inhibin at 5 μM” value was 23.5%.

Consider `CC(C)(C)C1=NN(c2ccccc2F)C(c2ccc(O)cc2)C1` (centres unmarked) [1m], for which the “cell-free assay % inhibin at 62.5 μM” value at Recombinant PKCζ is 57.6%. The “NF-κB reporter gene assay % inhibin at 5 μM” value with NF-κB Pathway is recorded as 48.7%.

Take `CC(C)(C)C1=NN(c2ccc(Cl)cc2Cl)C(c2ccc(O)cc2)C1` (centres unmarked) [1n]: the “cell-free assay % inhibin at 62.5 μM” value at Recombinant PKCζ is listed as 71.0%. The “NF-κB reporter gene assay % inhibin at 5 μM” value in the data set with NF-κB Pathway is listed as 50.2%.

Regarding `CC(C)(C)C1=NN(c2ccc(F)cc2F)C(c2ccc(O)cc2)C1` (centres unmarked) [1o], the “cell-free assay % inhibin at 62.5 μM” value on Recombinant PKCζ is given as 68.0%. In addition, the “NF-κB reporter gene assay % inhibin at 5 μM” value with NF-κB Pathway is recorded as 51.8%.

Regarding `Cc1ccc(N2N=C(C(C)(C)C)CC2c2ccc(O)cc2)c(C)c1` (centres unmarked) [1p], the “cell-free assay % inhibin at 62.5 μM” value on Recombinant PKCζ is listed as 59.9%. Besides, the “NF-κB reporter gene assay % inhibin at 5 μM” value in the data set on NF-κB Pathway is reported as 41.5%.

On to `CC(C)(C)C1=NN(c2ccc(F)c(F)c2)C(c2ccc(O)cc2)C1` (centres unmarked) [1s], for which the “PKCl % inhibn at 20 μM” value at PKCl is 23.7%.

Consider `Oc1ccc(C2CC(c3ccccc3O)=NN2c2ccc(Cl)cc2)cc1O` (centres unmarked) [4g], for which the “PKCl % inhibn at 20 μM” value on PKCl is reported as 44.1%.

Turning to `O=C(O)/C=C(/CCc1cccc(Cl)c1)c1ccccc1` [Compound 3Z], at PDK1 [1], the Amax was 2.2 fold.

As to `COc1ccccc1Cn1c(-c2cccnc2N)nc2cccnc21` [Compound 3c], on AKT1, the “Akt1 ΔTm” value is “no shift”.

As to `O=C(O)/C=C(\CCc1ccc(F)cc1)c1ccccc1` [Compound 4E], on PDK1 [1], the AC50 result is “n.e” and the Amax result is on record as “n.e”.

With `O=C(O)/C=C(/CCc1ccc(F)cc1)c1ccccc1` [Compound 4Z], the Amax on PDK1 [1] is on record as 3.3 fold.

Take `O=C(O)/C=C(/CCc1ccc(Br)cc1)c1ccccc1` [Compound 5Z]: the Amax on PDK1 [1] was 3.9 fold. Besides, on PDK1 [2], the “ITC Ka” value is reported as 4.78E4 — M^-1, the “ITC TΔS” value was 3.20 kcal/mol, the “ITC ΔG” value is -6.32 kcal/mol and the “ITC ΔH” value is -3.07 kcal/mol. Also, the “ITC ΔH/ΔG” value at PDK1 [2] is 48.6%.

For the compound `NCc1ccc(-n2c(-c3cccnc3)nc3cccnc32)cc1` [Compound 5b], the “Akt1 ΔTm” value on AKT1 was “no shift”.

On to `CC(=O)Nc1ccc(-n2c(-c3cccnc3N)nc3cccnc32)cc1` [Compound 5c], for which the “Akt1 ΔTm” value at AKT1 is 3.7 °C.

For `Nc1ccc(-n2c(-c3cccnc3N)nc3cccnc32)cc1` [Compound 5d], the “Akt1 ΔTm” value at AKT1 was 4.1 °C.

With `O=C(O)/C=C(/CCc1ccc(C(F)(F)F)cc1)c1ccccc1` [Compound 6Z], at PDK1 [1], the Amax was 4.4 fold. Moreover, on PDK1 [1] (read-out: AC50), the AC50 is 7.1 µM. Moreover, at PDK1 [2], the “ITC Ka” value was 9.66E4 — M^-1, the “ITC TΔS” value is 4.79 kcal/mol, the “ITC ΔG” value is -6.73 kcal/mol and the “ITC ΔH” value is -1.94 kcal/mol. Also, at PDK1 [2], the “ITC ΔH/ΔG” value is 28.8% and the Kd is 10.4 µM.

On to `O=C(O)/C=C(/CCc1ccc(Cl)c(Cl)c1)c1ccccc1` [Compound 7Z], for which the Amax at PDK1 [1] is 2.4 fold. Also, the AC50 on PDK1 [1] (read-out: AC50) is 2.8 µM. Also, on PDK1 [2], the “ITC Ka” value is 7.18E4 — M^-1, the “ITC TΔS” value is 2.80 kcal/mol, the “ITC ΔG” value was -6.56 kcal/mol and the “ITC ΔH” value is -3.71 kcal/mol. Also, on PDK1 [2], the “ITC ΔH/ΔG” value is recorded as 56.6% and the Kd was 13.9 µM.

Turning to `O=C(O)/C=C(\CCc1ccc(Cl)cc1Cl)c1ccccc1` [Compound 8E], on PDK1 [1], the AC50 result is given as “n.e” and the Amax entry was “n.e”.

Consider `O=C(O)/C=C(/CCc1ccc(Cl)cc1Cl)c1ccccc1` [Compound 8Z], for which the Amax on PDK1 [1] is recorded as 2.1 fold. On PDK1 [1] (read-out: AC50), the AC50 is 4.7 µM. At PDK1 [2], the “ITC Ka” value is 1.71E5 — M^-1, the “ITC TΔS” value is recorded as 4.93 kcal/mol, the “ITC ΔG” value was -7.07 kcal/mol and the “ITC ΔH” value was -2.08 kcal/mol. For the same compound, at PDK1 [2], the “ITC ΔH/ΔG” value is recorded as 29.5%.

Consider `Nc1ncccc1-c1nc2cccnc2n1-c1cccc(CNC(=O)c2ccccc2)c1` [Compound 8g], for which, at AKT1, the “Akt1 ΔTm” value is “no shift”.

Take `Nc1ncccc1-c1nc2cccnc2n1-c1ccc(CNCc2ccccc2)cc1` [Compound 8h]: at AKT1, the “Akt1 ΔTm” value is 4.9 °C.

With `CCc1ccc(CC/C(=C\C(=O)O)c2ccccc2)cc1` [Compound 10E], on PDK1 [1], the AC50 result is “n.e” and the Amax entry is “n.e”.

With `CCc1ccc(CC/C(=C/C(=O)O)c2ccccc2)cc1` [Compound 10Z], the Amax at PDK1 [1] was 1.4 fold. In addition, the AC50 at PDK1 [1] (read-out: AC50) was over 30 µM.

With `O=C(O)/C=C(\CCc1ccc(-c2ccccc2)cc1)c1ccccc1` [Compound 11E], the Amax result on PDK1 [1] is given as “n.e”.

Take `O=C(O)/C=C(/CCc1ccc(-c2ccccc2)cc1)c1ccccc1` [Compound 11Z]: at PDK1 [1], the Amax is reported as 3.2 fold.

Regarding `O=C(O)/C=C(/CCc1ccc2ccccc2c1)c1ccccc1` [Compound 12Z], the Amax at PDK1 [1] is on record as 3.5 fold. At PDK1 [2], the “ITC Ka” value is reported as 7.26E4 — M^-1, the “ITC TΔS” value is 1.96 kcal/mol, the “ITC ΔG” value was -6.67 kcal/mol and the “ITC ΔH” value was -4.56 kcal/mol. The “ITC ΔH/ΔG” value at PDK1 [2] is 68.3%.

For the compound `O=C(O)/C=C(/CCc1c[nH]c2ccccc12)c1ccccc1` [Compound 13Z], the Amax on PDK1 [1] is 3.1 fold. Also, at PDK1 [2], the “ITC Ka” value is given as 9.63E4 — M^-1, the “ITC TΔS” value is 2.60 kcal/mol, the “ITC ΔG” value is -6.73 kcal/mol and the “ITC ΔH” value is -4.09 kcal/mol. The “ITC ΔH/ΔG” value on PDK1 [2] is recorded as 60.8%.
